Experiment [1] deals with T1, HSF-PLA2 (extracellular PLA2 obtained from human synovial fluid) (Homo sapiens, UniProt P14555).
T1 construct: extracellular enzyme obtained from human synovial fluid; from tissue; host or cells: pooled human synovial fluid (0.1% v/v in the assay)
T1 sequence (P14555 21-144): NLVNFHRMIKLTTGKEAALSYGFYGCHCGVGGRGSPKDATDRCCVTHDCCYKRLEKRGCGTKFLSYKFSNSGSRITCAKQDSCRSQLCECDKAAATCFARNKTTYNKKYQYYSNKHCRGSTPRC
The experiment in a line: Assay for Inhibition of HSF-PLA2 In Vitro. Type of experiment: biochemical. Particulars: given as 50 % inhibition at the given concentration; 14C-oleate-labelled E. coli substrate, pH 7.3, 37° C., 30 minutes; read-out: % Inhib of HSF-PLA2: 50 (concentration) = IC50 (μM concentration that produces 50% inhibition of PLA2 activity). The procedure: The PLA2 used in this test is the extracellular enzyme obtained from human synovial fluid (HSF-PLA2). The assay for HSF-PLA2 activity was a modification of the described method [Franson R., Dobrow R., Weiss, J., Elsbach P., and […]. Lipid Res., 19, 18-23 (1978)] which was conducted using [1-^14 C]-oleate-labelled E. coli substrate in excess at a final concentration of 20,000 dpm/ml. This was equivalent to 18.2 mM of cell membrane phospholipid phosphorus and 2×10^9 autoclaved E. coli/ml. The optimal conditions which were developed for the assay of HSF-PLA2 inhibitors are summarized as follows. […] The reaction was terminated by the addition of 2.5 ml of chloroform-methanol (1 to 1.5, v/v). The extraction of lipids from the stopped reaction mixture was conducted by the further additions of 0.5 ml of chloroform and 1 ml of water with mixing. […] The extracted lipid residue was redissolved in […] of a solution containing carrier oleic acid (0.2 mg/ml) of […]]). […] This TLC system rapidly (6 minutes) resolved the enzymatically released product, ^14 C-oleic acid, from the unreacted ^14 C-phospholipid substrate. The unsaturated lipids were located on the chromatogram by a brief exposure to iodine vapor. The oleic acid zone (Rf value 0.95) and phospholipid zone (origin) were cut out, chopped into small pieces, shaken with 2 ml of ethanol-water (80 to 20, v/v) and 15 ml of Aquasol and counted for radioactivity. A control incubation of substrate in the absence of HSF-PLA2 was performed in each experiment. The PLA2 activity of the human synovial fluid was corrected for this small control value. […] The specific activity of PLA2 in the pooled human synovial fluid under the optimal assay conditions was 49.2 nmoles [1-^14 C]-oleic acid released hour^-1 mg^-1. The IC50 (μM concentration of test compound that produces 50% inhibition of PLA2 activity) was determined for each test compound.

The subject of experiment [2] is myeloperoxidase (MPO) activity, indicator of neutrophil infiltration. The experiment in a line: TPA mouse ear test, myeloperoxidase activity in ear punches. Type of experiment: in vivo, male CD-1 mice. Particulars: 0.3 mg topically. As to the method:
(§1) For this test, 10 μl of 12-O-tetradecanoylphorbol-13-acetate (TPA), dissolved in a vehicle of pyridine: water: diethyl ether (20:5:75), was applied to the outside of the right ear of 3-4 week old male CD-1 mice (8 animals per group). The test compounds were dissolved in the same vehicle and 10 μl was applied to the inside of the same ear 30 minutes prior to the application of TPA. Ear punches (6 mm) were removed at 6 hours after TPA application, weighed and assayed for myeloperoxidase (MPO) activity as described in the following reference: P. P. Bradley, D. A. Priebat, R. D. Christensen and G. Rothstein, J. Invest. Dermatology 78, 206-209 (1982). The wet weight of the ear biopsy punches is a measure of the ear edema and the level of MPO activity in the ear punches is an indicator of neutrophil infiltration. The data are expressed as percent inhibition of drug-treatedanimals relative to the control group.

For experiment [3], the system named is croton oil-induced mouse ear edema. Description: Croton Oil Mouse Ear Edema Test. The class given is in vivo, male CD-1 mice. The following applies: 1 mg topical, coapplied with croton oil, ear punch weight at 6 hours. The procedure: The croton oil-induced mouse ear edema test, a model of irritant-induced contact dermatitis, has been used for evaluation of the PLA2 inhibitors by the topical route of administration. This test was carried out as described in the following references:
The major active ingredient in croton oil is the tumor promoter 12-O-tetradecanoylphorbol-13-acetate (TPA) and the topical application of TPA to mouse skin has been reported to cause an increase in epidermal PGE2 production as well as an increase in epidermal cell membrane PLA2 activity. Indomethacin, an inhibitor of prostaglandin synthesis, prevented the TPA-mediated increase in epidermal PGE2 levels as well as the TPA-mediated induction of epidermal cell ornithine decarboxylase. Furthermore, the application of PGE2 to mouse skin countered the inhibitory effect of indomethacin upon TPA-stimulated cellular proliferation.
Twenty five μl of a 1% croton oil solution [dissolved in a mixture of pyridine/water/diethyl ether at a ratio of 5/20/75 (croton oil vehicle)] are applied to the outer side of the right ear of 3-4 week old male CD-1 mice (8 animals per group). The test compounds are dissolved directly in the 1% croton oil solution at various concentrations and coapplied. Control animals receive 25 μl of croton oil vehicle on the right ear. Biopsy punches are removed at 6 hours from the fight ear of the animals using a 6 mm skin trephine (Roboz, Washington, D.C.) and the wet weight of the ear punches is determined. The weight of the biopsy punches is a measure of ear inflammation, primarily edema. The data are expressed as percent inhibition relative to control groups.
Statistical analysis of the mean edema values of the control versus the treated groups is performed using Student's t-test. The significance of changes from the mean value for vehicle-treated (control) animals in the following Tables is indicated as follows: *p<0.05, **p<0.01, ***p<0.005,ns/not significant.

Experiment [4] concerns myeloperoxidase in colonic mucosa. The experiment in a line: Acetic Acid-Induced Colitis in Rats. Type of experiment: in vivo, Male rats (Sprague-Dawley). Particulars: 10 mg/kg orally. From the text:
The rat acetic acid-induced colitis bioassay has been described by J. E. Krawisz, et al. in Amer. J. Proc. Gastro. Col. Rec. Surg. 31:11-18 (1980), and by P. Sharon and W. F. Stenson in Gastroenterology 88, 55-63 (1985) and 86, 453-460 (1984). Acetic acid-induced colitis is characterized by the movement of inflammatory cells into the colon, ,with the number of such cells in the mucosa being measured by the activity of myeloperoxidase, a marker enzyme for these cells. Positive desirable activity is indicated by a reduction in the high levels of myeloperoxidase caused by acetic acid. Male rats (Sprague-Dawley), weighing 150 to 300 g, were pretreated twice daily for two days with either the vehicle (water or dimethylsulfoxide) or the test inhibitor compound suspended in water or dissolved in dimethylsulfoxide and orally administered. […] The colonic mucosa was surgically removed and homogenized in an aqueous buffer at pH 6 with a Tissumizer or similar device and myeloperoxidase was measured in the homogenate using o-phenylenediamine as a chromagen, as described by A. Voller, D. E. Bidwell and A. Bartlett in "The Enzyme Linked Immunosorbent Assay (ELISA)", Zoological Soc., London, 1979, pages 29-30. […]

For experiment [5], the system named is TPA-induced mouse ear edema. Description: TPA Induced Mouse Ear Edema Test (ear punch weight). Type of experiment: in vivo, male CD-1 mice. The following applies: Mus musculus; 0.3 mg topical, 30 minutes prior to TPA, ear punch weight at 6 hours; read-out: % Inhib of TPA Mouse Ear Edema (0.3 mg). As to the method:
as §1, with “The TPA-induced mouse ear edema test, a model of irritant-induced contact dermatitis is described in the following reference: J. M. Young, B. M. Wagner and […]. Invest. Dermatology 80, 48-52 (1983). For” for “For”, “[…].” for “D. A. Priebat, R. D.”, “drug-[…]” for “drug-treatedanimals”

Take `CCCCCCCCCCCCCCCCCCOc1cc(OCCCCCCc2cccc(O)c2O)cc(C(=O)O)c1` [Example 19, 3-[[6-(2,3-Dihydroxyphenyl)hexyl]oxy]-5-(octadecyloxy) benzoic acid]: the IC50 in experiment [1] is 1.1 µM. Further, the “% Inhib of myeloperoxidase in the TPA mouse ear test” value in experiment [2] was 94%. For the same molecule, the “% Inhib of Croton Oil Mouse Ear Edema (1 mg)” value in experiment [3] was 76%. Further, in experiment [4], the “inhibition of myeloperoxidase (acetic acid-induced colitis)” value was 56±17%. Further, in experiment [5], the inhibition in vivo at 0.3 mg was determined as 55%.

(Values after patent US5374772A, “Substituted benzoic acids, inhibitors of phospholipases A2” (Hoffmann-LaRoche Inc., priority 1993, dated 1994).)
